# Molecular target: T1, human mPGES-1 (Homo sapiens, UniProt O14684)
# T1 construct: made in house; host or cells: E. coli
# T1 sequence (O14684 1-152): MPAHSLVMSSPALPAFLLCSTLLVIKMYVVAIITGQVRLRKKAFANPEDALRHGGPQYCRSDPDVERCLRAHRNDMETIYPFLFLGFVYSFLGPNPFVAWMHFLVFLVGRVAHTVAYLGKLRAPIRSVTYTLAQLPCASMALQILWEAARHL
# Experiment: mPGES-1 biological test (conversion of PGH2 to PGE2, HPLC analysis)
# Type: biochemical
# Details: human mPGES-1 expressed in E. coli, membrane fraction; 25 min preincubation with inhibitor, 60 s with PGH2, room temperature; read-out: concentration at which 50% inhibition of mPGES-1 was observed
# Protocol: In the assay human mPGES-1 catalyses the reaction where the substrate PGH2 is converted to PGE2. mPGES-1 is expressed in E. coli and the membrane fraction is dissolved in 20 mM NaPi-buffer pH 8.0 and stored at −80° C. In the assay human mPGES-1 is dissolved in 0.1 M KPi-buffer pH 7.35 with 2.5 mM glutathione. The stop solution consists of H2O/MeCN (7/3), containing FeCl2 (25 mM) and HCl (0.15 M). The assay is performed at room temperature in 96-well plates. Analysis of the amount of PGE2 is performed with reversed phase HPLC (Waters 2795 equipped with a 3.9×150 mm C18 column). The mobile phase consists of H2O/MeCN (7/3), containing TFA (0.056%), and absorbance is measured at 195-nm with a Waters 2487 UV-detector.
# The following is added chronologically to each well: • 1. 100 μL human mPGES-1 in KPi-buffer with glutathione. Total protein concentration: 0.02 mg/mL. • 2. 1 μL inhibitor in DMSO. Incubation of the plate at room temperature for 25 minutes. • 3. 4 μL of a 0.25 mM PGH2, solution. Incubation of the plate at room temperature for 60 seconds. • 4. 100 μL stop solution. • 180 μL per sample is analyzed with HPLC.
row,IC50,SMILES
1,62 nM,"CC(C)Oc1ccc(-n2c(C(=O)O)cc3cc(-c4ccc(C(C)(C)C)cc4)ccc32)cc1 [Example 1, 5-(4-tert-Butylphenyl)-1-(4-isopropoxphenyl)-indole-2-carboxylic acid]"
2,610 nM,CC(C)Oc1ccc(-n2c(C(=O)O)cc3cc(-c4ccc(OC(C)C)nc4)ccc32)cc1 [Example 9]

# Second part, the molecule before the results:
row,SMILES,IC50
1,"CC(C)Oc1ccc(-c2ccc3c(c2)c(Cl)c(C(=O)O)n3-c2ccc(OC(C)C)nc2)cc1 [Example 33, 3-Chloro-5-(4-isopropoxyphenyl)-1-(6-isopropoxypyrid-3-yl)indole-2-carboxylic acid]",390 nM
2,"O=C(O)c1c(Cl)c2cc(-c3ccc(C(F)(F)F)cn3)ccc2n1-c1ccc(OC2CCCC2)nc1 [Example 36, 3-Chloro-1-(6-cyclopentoxypyrid-3-yl)-5-(5-trifluoromethylpyrid-2-yl)-1H-indole-2-carboxylic acid]",1100 nM
3,"CC(C)(C)c1ccc(-c2ccc3c(c2)cc(C(=O)O)n3-c2ccc(C3CCCCC3)cc2)cc1 [Example 64, 5-(4-tert-Butylphenyl)-1-(4-cyclohexylphenyl)-1H-indole-2-carboxylic acid]",170 nM

# Source: patent US7705023B2, “Indoles useful in the treatment of inflammation” (Biolipox AB, priority 2005, dated 2010)
